# Source: patent US20120115912A1, “RXR AGONIST COMPOUNDS AND METHODS” (priority 2009, published 2012)
# Read-outs that look alike come from different tables or passages of the source.
# How the values were obtained:
# [1] = system: primary microglia; test: Proteolytic degradation of Aβ by primary microglia; format: cell-based, murine; conditions: for intracellular Aβ levels: 24 hours drug then 18 hours with 2 μg/mL soluble Aβ
# Excerpt: FIG. 5 illustrates graphs showing RXR agonists stimulate Aβ degradation.
# Given the ability of RXR activation to drive LXR target gene expression, we predicted that agonist treatment should promote the proteolytic degradation of Aβ by microglia. […] Aβ uptake was unaffected by either drug treatment.
# [2] = system: microglia; test: RXR mediated intracellular Aβ degradation with PPARγ or LXR inhibitors, microglia; format: cell-based; conditions: inhibitor pretreatment 1.5 hrs, Bexarotene 24 hours, 18 hours 2 ug/mL soluble Aβ
# Excerpt: (§1) FIG. 14 illustrates graphs showing RXR mediated intracellular Aβ degradation is prevented by inhibiting PPARγ or LXR.
# (§2) To determine which heterodimer partners are involved in RXR activation driven Aβ intracellular degradation, we inhibited PPARγ and LXR by competitive inhibitors, TO and 22-s-Hydroxycholesterol, respectively. Aβ degradation mediated by either microglia (A) or astrocytes (B) is inhibited with either inhibitor to PPAR or LXR. Additionally, a co-treatment with both inhibitors reduces Aβ degradation further (FIG. 14).
# [3] = system: astrocytes; test: RXR mediated intracellular Aβ degradation with PPARγ or LXR inhibitors, astrocytes; format: cell-based; conditions: inhibitor pretreatment 1.5 hrs, Bexarotene 24 hours, 18 hours 2 ug/mL soluble Aβ
# Excerpt: as §1, §2
# [4] = system: ApoE; test: ApoE lipidation status in astrocyte conditioned media (native gel electrophoresis, Western); format: cell-based; conditions: confluent primary murine astrocytes, increasing doses, 48 hours
# Excerpt: FIG. 4 illustrates an immunoassay showing ApoE lipidation status is increased after RXR agonist treatment. […] Conditioned media was subjected to native gel electrophoresis followed by Western analysis for ApoE.
# Astrocyte conditioned media was collected and assessed by native gel electrophoresis. […]. (FIG. 4).
# [5] = system: primary astrocytes; test: Proteolytic degradation of Aβ by primary astrocytes; format: cell-based, murine
# Excerpt: FIG. 12 illustrates a graph showing RXR agonist stimulate Aβ degradation in astrocytes.
# As shown above, astrocytes can drive the expression of LXR target genes after RXR activation, we predicted that agonist treatment should also promote the intracellular degradation of Aβ by astrocytes. […]. Aβ uptake was not affected by drug treatments (data not shown).
# [6] = system: ApoE knock out microglia; test: Intracellular Aβ degradation in ApoE knock out microglia; format: cell-based, murine
# [7] = system: ApoE knock out astrocytes; test: Intracellular Aβ degradation in ApoE knock out astrocytes; format: cell-based, murine
# [8] = system: LXR target genes, ABCA1 and ABCG1; conditions: murine model of mixed dyslipidemis; cited from earlier work
# [9] = humans, extended periods of use; cited from earlier work
# [10] = system: AD animal model; test: Contextual fear conditioning in AD animal model; conditions: 6 month old AD model mice, 100 mg/kg/day oral gavage, 7 days
# Protocol: Wildtype littermates were used as a control and were orally gavaged with water for 7 days (n=5). Following treatment, animals underwent contextual fear conditioning. The number of times the animals froze over a two minute period was assessed after training.
# [11] = system: CD36; test: Expression of PPARγ target gene CD36 in primary astrocytes (qRT-PCR); conditions: confluent primary murine astrocytes, 10 nM, time course
# Excerpt: Cell lysates were subjected to quantitative RT-PCR. GAPDH served as a control.
# [12] = system: LXR target genes (ABCA1, ABCG1, ApoE); test: RXR activation drives LXR target gene expression in primary astrocytes (Western analysis); conditions: primary murine astrocytes, increasing doses, 24 hours
# Excerpt: Cell lysates were subjected to Western analysis for ABCA1, ABCG1 and ApoE. Actin served as a load control.
# [13] = system: LXR target genes (ABCA1, ABCG1, ApoE); conditions: primary murine microglia, increasing doses, 24 hours
# Excerpt: Cell lysates were subjected to Western analysis for ABCA1, ABCG1, ApoE, and GAPDH as a loading control.
# [14] = therapeutic doses, FDA alert issued on May 21, 2007; cited from earlier work
smiles,measurement,setting,value
CC1=C(/C=C/C(C)=C\C=C\C(C)=C\C(=O)O)C(C)(C)CCC1 [9cisRA],Aβ uptake,[1],unaffected
same,intracellular Aβ levels,[1],dose-dependent reduction
CC(C)CC[C@H](O)[C@@H](C)[C@H]1CC[C@H]2[C@@H]3CC=C4C[C@@H](O)CC[C@]4(C)[C@H]3CC[C@]12C [22-s-Hydroxycholesterol],Bexarotene-driven Aβ degradation in presence of inhibitor,[2],inhibited
same,Bexarotene-driven Aβ degradation in presence of inhibitor,[3],inhibited
C=C(c1ccc(C(=O)O)cc1)c1cc2c(cc1C)C(C)(C)CCC2(C)C [Bexarotene],lipidation status of ApoE,[4],increases the lipidation status of ApoE
same,Aβ uptake,[1],unaffected
same,intracellular Aβ levels,[1],dose-dependent reduction
same,intracellular Aβ levels,[5]; 24 hours drug then 18 hours with 2 ug/mL soluble Aβ,dose dependent reduction
same,Aβ uptake,[5]; data not shown,not affected
same,intracellular Aβ degradation,[6]; with exogenous 1 μg/mL ApoE,the effect of intracellular Aβ degradation returns
same,intracellular Aβ degradation,[6]; without ApoE,no effect
same,intracellular Aβ degradation,[7]; with exogenous 1 μg/mL ApoE,the effect of intracellular Aβ degradation returns
same,intracellular Aβ degradation,[7]; without ApoE,no effect
same,"expression of the LXR target genes, ABCA1 and ABCG1",[8],"induce the expression of the LXR target genes, ABCA1 and ABCG1"
same,clinical safety profile,[9],good safety profile
same,contextual fear conditioning behavior,[10],significantly improves behavior
same,CD36 expression by qRT-PCR,[11],"drives CD36, a PPARγ regulated gene, expression"
same,"expression of ABCA1, ABCG1, and ApoE",[12],"drives the expression of ABCA1, ABCG1 and ApoE"
same,"expression of ABCA1, ABCG1, and ApoE",[13],"drives the expression of ABCA1, ABCG1, and ApoE"
"CN(CCOc1ccc(CC2SC(=O)NC2=O)cc1)c1ccccn1 (centres unmarked) [rosiglitazone, 5-[4-[2-(N-methyl-N-(2-pyridyl)amino]ethoxy]benzyl]thiazolidine-2,4-dione]",risk of heart attack,[14],significantly increased risk of heart attack
